Assay results as given in patent US11364277B2, “Treatment of ascites” (BioVie Inc., priority 2015, dated 2022).
“And” between values parts separate entries of the source, which are not always exact repeats. Identical values can stand only once. Where a SMILES comes first, the peptide text is derived from it. Bridges are numbered along the chain shown (N, C = ends).

Key:
[1] = system: HRS patients with diuretic intractable or refractory ascites; test: Example 2: six HRS patients with ascites treated with continuous infusion terlipressin, evaluated before, during and after treatment; type: in vivo, human; settings: for Body Weight After / Plasma Sodium After / Serum Creatinine After / Serum Urea After: after treatment;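 for Serum Urea After: serum urea in mmol/L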;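 for Serum Urea During: serum urea in mmol/L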
Method: Six FIRS patients treated with continuous infusion terlipressin were evaluated for improvement in […]. All six patients had diuretic intractable or refractory ascites (5 of 6 with hyponatremia). The patients were evaluated for the following parameters before, during and after treatment: number of paracentesis procedures per month, volume of ascites removed, weight, serum sodium, urinary sodium excretion, serum creatinine, serum urea, and whether diuretics were included in the treatment regimen.

[2] = human, in vivo; cited from earlier work
[3] = human, in vivo, cited from earlier work
[4] = system: subjects with ascites due to liver cirrhosis, not type 1 or type 2 HRS; type: in vivo, human
Method: 15 subjects that are to be confirmed to have ascites, but not type 1 or type 2 HRS, due to liver cirrhosis will be administered continuous low dose (escalating from 2.0 to 3.0 mg per 24 hours) terlipressin via ambulatory infusion pump. […] Accordingly, continuous infusion pump (CIP) terlipressin represents a potentially life-saving solution for these seriously ill patients who are still ambulatory (have not yet been administered to the hospital for treatment) and have not developed type 1 or type 2 HRS.

[5] = Average (excludes patients #2, #3, #5)
[6] = Patient 1, max. dose 12 mg/day, 63 days
[7] = Patient 1, max. dose 12 mg/day, 63 days, diuretics during: A
[8] = Patient 2, max. dose 12 mg/day, 195 days
[9] = Patient 2, max. dose 12 mg/day, 195 days, diuretics during: None
[10] = Patient 3, max. dose 3 mg/day, 10 days
[11] = Patient 3, max. dose 3 mg/day, 10 days, diuretics during: None
[12] = Patient 4, max. dose 10 mg/day, 11 days
[13] = Patient 4, max. dose 10 mg/day, 11 days, diuretics during: None
[14] = Patient 5, max. dose 3 mg/day, 22 days
[15] = Patient 5, max. dose 3 mg/day, 22 days, diuretics during: None
[16] = Patient 6, max. dose 2 mg/day, 12 days
[17] = Patient 6, max. dose 2 mg/day, 12 days, diuretics during: F + A

NCCCC[C@H](NC(=O)[C@@H]1CCCN1C(=O)[C@@H]1CSSC[C@H](NC(=O)CNC(=O)CNC(=O)CN)C(=O)N[C@@H](Cc2ccc(O)cc2)C(=O)N[C@@H](Cc2ccccc2)C(=O)N[C@@H](CCC(N)=O)C(=O)N[C@@H](CC(N)=O)C(=O)N1)C(=O)NCC(N)=O [terlipressin] (H-GGGCYFQNCPKG-NH2; disulfide 4-9)
Plasma Sodium % Change ([1]; Average): 5% | Plasma Sodium During ([1]; Average): 135 mEq/L | Serum Creatinine % Change ([1]; Average): −47% | Serum Creatinine During ([1]; Average): 127 µM | Serum Urea % Change ([1]; Average): −45% | Serum Urea During ([1]; Average): 15.1 mmol/L | Body Weight % Change ([1]; Average (excludes Patient #4)): −11% | Body Weight During ([1]; Average (excludes Patient #4)): 73 kg | Body Weight After ([1]; Average (excludes Patient #4)): 87 kg | Paracenteses/Month % Change ([1]; Average (excludes patient #1)): −32% | Volume Fluid Removed/Month % Change ([1]; Average (excludes patient #1)): −55% | Volume Fluid Removed/Month During ([1]; Average (excludes patient #1)): 14 L | Urinary Na over 24 hours % Change [1, 5]: 1632% | Urinary Na over 24 hours During [1, 5]: 127 mEq/24 hr | Plasma Sodium After ([1]; Average): 136 mEq/L | Serum Creatinine After ([1]; Average): 105 µM | Serum Urea After ([1]; Average): 10.4 mmol/L | Plasma Sodium % Change [1, 6]: −2% | Plasma Sodium During [1, 6]: 137 mEq/L | Serum Creatinine % Change [1, 6]: −24% | Serum Creatinine During [1, 6]: 189 µM | Serum Urea % Change [1, 6]: −72% | Serum Urea During [1, 6]: 8.8 mmol/L | Urinary Na over 24 hours % Change [1, 6]: 820% | Urinary Na over 24 hours During [1, 6]: 46 mEq/24 hr | Body Weight After [1, 6]: 74 kg | Body Weight % Change [1, 7]: −11% | Body Weight During [1, 7]: 74 kg | Paracenteses/Month % Change [1, 7]: −100% | Paracenteses/Month During [1, 7]: 0 /Month | Plasma Sodium % Change [1, 8]: 2% | Plasma Sodium During [1, 8]: 128 mEq/L | Serum Creatinine % Change [1, 8]: −46% | Serum Creatinine During [1, 8]: 208 µM | Serum Urea % Change [1, 8]: −37% | Serum Urea During [1, 8]: 23.2 mmol/L | Urinary Na over 24 hours During [1, 8]: 301 mEq/24 hr | Body Weight % Change [1, 9]: 11% | Body Weight During [1, 9]: 71 kg | Paracenteses/Month % Change [1, 9]: −25% | Paracenteses/Month During [1, 9]: 6 /Month | Volume Fluid Removed/Month % Change [1, 9]: −48% | Volume Fluid Removed/Month During [1, 9]: 42 L | Plasma Sodium % Change [1, 10]: 2% | Plasma Sodium During [1, 10]: 136 mEq/L | Serum Creatinine % Change [1, 10]: −50% | Serum Creatinine During [1, 10]: 116 µM | Serum Urea % Change [1, 10]: −46% | Serum Urea During [1, 10]: 9.1 mmol/L | Body Weight After [1, 10]: 128 kg | Plasma Sodium After [1, 10]: 140 mEq/L | Serum Creatinine After [1, 10]: 122 µM | Serum Urea After [1, 10]: 10.8 mmol/L | Body Weight % Change [1, 11]: −23% | Body Weight During [1, 11]: 99 kg | Paracenteses/Month % Change [1, 11]: −50% | Paracenteses/Month During [1, 11]: 2 /Month | Volume Fluid Removed/Month % Change [1, 11]: −65% | Volume Fluid Removed/Month During [1, 11]: 14 L | Plasma Sodium % Change [1, 12]: 15% | Plasma Sodium During [1, 12]: 141 mEq/L | Serum Creatinine % Change [1, 12]: −67% | Serum Creatinine During [1, 12]: 104 µM | Serum Urea % Change [1, 12]: −28% | Serum Urea During [1, 12]: 37.3 mmol/L | Urinary Na over 24 hours % Change [1, 12]: 1900% | Urinary Na over 24 hours During [1, 12]: 20 mEq/24 hr | Paracenteses/Month % Change [1, 13]: 50% | Paracenteses/Month During [1, 13]: 3 /Month | Volume Fluid Removed/Month % Change [1, 13]: −36% | Volume Fluid Removed/Month During [1, 13]: 9 L | Plasma Sodium % Change [1, 14]: −2% | Plasma Sodium During [1, 14]: 128 mEq/L | Serum Creatinine % Change [1, 14]: −19% | Serum Creatinine During [1, 14]: 55 µM | Serum Urea % Change [1, 14]: −17% | Serum Urea During [1, 14]: 5.3 mmol/L | Body Weight After [1, 14]: 77 kg | Serum Creatinine After [1, 14]: 55 µM | Serum Urea After [1, 14]: 10.5 mmol/L | Body Weight % Change [1, 15]: −10% | Body Weight During [1, 15]: 64 kg | Paracenteses/Month % Change [1, 15]: −33% | Paracenteses/Month During [1, 15]: 2 /Month | Volume Fluid Removed/Month % Change [1, 15]: −71% | Volume Fluid Removed/Month During [1, 15]: 6 L | Plasma Sodium % Change [1, 16]: 19% | Plasma Sodium During [1, 16]: 140 mEq/L | Serum Creatinine % Change [1, 16]: −54% | Serum Creatinine During [1, 16]: 90 µM | Serum Urea % Change [1, 16]: −68% | Serum Urea During [1, 16]: 6.6 mmol/L | Urinary Na over 24 hours % Change [1, 16]: 1869% | Urinary Na over 24 hours During [1, 16]: 315 mEq/24 hr | Body Weight After [1, 16]: 68 kg | Plasma Sodium After [1, 16]: 131 mEq/L | Serum Creatinine After [1, 16]: 137 µM | Serum Urea After [1, 16]: 10.0 mmol/L | Body Weight % Change [1, 17]: −14% | Body Weight During [1, 17]: 55 kg | Paracenteses/Month % Change [1, 17]: −100% | Paracenteses/Month During [1, 17]: 0 /Month | Volume Fluid Removed/Month % Change [1, 17]: −100% | Volume Fluid Removed/Month During [1, 17]: 0 L | overall average decrease of urea concentration in blood serum ([1]; all patients, during treatment): 45% | reduction of average monthly ascites fluid volume removed ([1]; during continuous infusion therapy vs prior to initiation): 55% | decrease of average body weight per patient ([1]; during therapy, proxy for ascitic fluid accumulation): 11% and 9 kg and ~19.8 lbs | improvement of ascites seen without diuretics ([1]; during treatment, number of patients): four of six patients | plasma sodium after the cessation of therapy ([1]; patient #6): remained normal | correction of severe hyponatremia ([1]; patients #4 and #6): corrected severe hyponatremia in two patients | average urinary sodium after starting therapy ([1]; three of six patients with data before and after starting continuous infusion, increased from 7): 127 mEq/24 h | average decrease in serum creatinine levels ([1]; treated group of patients): 47% | half-life [2]: 26 min | patients with side effects ([3]; iv): up to 40% | patients with severe side effects requiring discontinuation of treatment [3]: up to 10% | severity of ascites and accumulation of ascites fluid ([4]; 2.0 to 3.0 mg per 24 hours escalating, 1 day to 28 days, expected): decrease the severity of ascites and the accumulation of ascites fluid | average amount of fluid withdrawn after beginning therapy ([4]; compared to prior to the start of treatment, expected): significantly less than prior to the start of treatment | number of paracentesis procedures required over a 28-day period ([4]; compared to the 28-day period prior to treatment inception, expected): reduce the number of paracentesis procedures | safety of continuous infusion pump terlipressin ([4]; human, in vivo): no serious side effects
